Reference: ChEMBL document CHEMBL4038308, “Lipophosphonoxins II: Design, Synthesis, and Properties of Novel Broad Spectrum Antibacterial Agents” (J Med Chem, 2017)
≈ marks a conversion by molar mass, not a printed value.

Key:
Escherichia coli [1] = experiment: Antibacterial activity against Escherichia coli CCM 3954 after 24 hrs by microdilution method; format: functional; conditions: CCM 3954, 24 h
Pseudomonas aeruginosa [2] = experiment: Antibacterial activity against Pseudomonas aeruginosa CCM 3955 after 24 hrs by microdilution method; format: functional; conditions: CCM 3955, 24 h
Enterococcus faecalis = experiment: Antibacterial activity against Enterococcus faecalis CCM 4224 after 24 hrs by microdilution method; format: functional; conditions: CCM 4224, 24 h
Staphylococcus aureus [3] = experiment: Antibacterial activity against Staphylococcus aureus CCM 4223 after 24 hrs by microdilution method; format: functional; conditions: CCM 4223, 24 h
Bacillus subtilis = experiment: Antibacterial activity against Bacillus subtilis after 24 hrs by microdilution method; format: functional
Streptococcus agalactiae = experiment: Antibacterial activity against Streptococcus agalactiae after 24 hrs by microdilution method; format: functional
Escherichia coli [4] = experiment: Antibacterial activity against Escherichia coli 16702 after 24 hrs by microdilution method; format: functional; conditions: Escherichia coli, 16702, 24 h
Pseudomonas aeruginosa [5] = experiment: Antibacterial activity against Pseudomonas aeruginosa 16575 after 24 hrs by microdilution method; format: functional; conditions: Pseudomonas aeruginosa, 16575, 24 h
Staphylococcus aureus [6] = experiment: Antibacterial activity against methicillin-resistant Staphylococcus aureus 4591 clinical isolates after 24 hrs by microdilution method; format: functional; conditions: Staphylococcus aureus, 4591, 24 h
[7] = system: Staphylococcus haemolyticus; experiment: Antibacterial activity against fluoroquinolne-resistant Staphylococcus haemolyticus 16568 after 24 hrs by microdilution method; format: functional; conditions: Staphylococcus haemolyticus, 16568, 24 h
[8] = system: Staphylococcus epidermidis; experiment: Antibacterial activity against Staphylococcus epidermidis 8700/B after 24 hrs by microdilution method; format: functional
Enterococcus faecium = experiment: Antibacterial activity against vancomycin-resistant Enterococcus faecium 419/ana clinical isolates after 24 hrs by microdilution method; format: functional
Salmonella enteritidis = experiment: Antibacterial activity against Salmonella enteritidis S2-25 after 24 hrs by microdilution method; format: functional, Salmonella enterica subsp. enterica serovar Enteritidis; conditions: Salmonella enterica, S2-25, 24 h
Acinetobacter baumannii = experiment: Antibacterial activity against Acinetobacter baumannii A3-08 after 24 hrs by microdilution method; format: functional; conditions: A3-08, 24 h
[9] = system: Stenotrophomonas maltophilia; experiment: Antibacterial activity against Stenotrophomonas maltophilia S2-23 after 24 hrs by microdilution method; format: functional; conditions: S2-23, 24 h
Burkholderia multivorans = experiment: Antibacterial activity against Burkholderia multivorans after 24 hrs by microdilution method; format: functional

Compound	MIC (Escherichia coli [1]) [µg/mL]	MIC (Pseudomonas aeruginosa [2]) [µg/mL]	MIC (Enterococcus faecalis) [µg/mL]	MIC (Staphylococcus aureus [3]) [µg/mL]	MIC (Bacillus subtilis) [µg/mL]	MIC (Streptococcus agalactiae) [µg/mL]	MIC (Escherichia coli [4]) [µg/mL]	MIC (Pseudomonas aeruginosa [5]) [µg/mL]	MIC (Staphylococcus aureus [6]) [µg/mL]	MIC [7] [µg/mL]	MIC [8] [µg/mL]	MIC (Enterococcus faecium) [µg/mL]	MIC (Salmonella enteritidis) [µg/mL]	MIC (Acinetobacter baumannii) [µg/mL]	MIC [9] [µg/mL]	MIC (Burkholderia multivorans) [µg/mL]
CCCCCCCCCCCCCCOP(=O)(CCN1CCC(N)C1)OC[C@H]1O[C@@H](n2ccc(=O)[nH]c2=O)[C@H](O)[C@@H]1O (stereo partly drawn)	3.13 (≈ 5.08 µM)	3.13 (≈ 5.08 µM)	6.25 (≈ 10.1 µM)	12.5 (≈ 20.3 µM)	1.56 (≈ 2.53 µM)	3.13 (≈ 5.08 µM)	3.13 (≈ 5.08 µM)	3.13 (≈ 5.08 µM)	25 (≈ 40.5 µM)	6.25 (≈ 10.1 µM)	3.13 (≈ 5.08 µM)	50 (≈ 81.1 µM)	6.25 (≈ 10.1 µM)	6.25 (≈ 10.1 µM)	12.5 (≈ 20.3 µM)	50 (≈ 81.1 µM)
CCCCCCCCCCCCCOP(=O)(CCN(CCCNC(=N)N)CCCNC(=N)N)OC[C@H]1O[C@@H](n2ccc(=O)[nH]c2=O)[C@H](O)[C@@H]1O (stereo partly drawn)	12.5 (≈ 17.1 µM)	3.13 (≈ 4.28 µM)	25 (≈ 34.2 µM)	6.25 (≈ 8.54 µM)	1.56 (≈ 2.13 µM)	3.13 (≈ 4.28 µM)	12.5 (≈ 17.1 µM)	25 (≈ 34.2 µM)	12.5 (≈ 17.1 µM)	3.13 (≈ 4.28 µM)	6.25 (≈ 8.54 µM)	50 (≈ 68.3 µM)	12.5 (≈ 17.1 µM)	25 (≈ 34.2 µM)	25 (≈ 34.2 µM)	50 (≈ 68.3 µM)
CCCCCCCCCCCCOP(=O)(CCN(CCCN)CCCN)OC[C@H]1O[C@@H](n2ccc(=O)[nH]c2=O)[C@H](O)[C@@H]1O (stereo partly drawn)	25 (≈ 39.4 µM)	3.13 (≈ 4.94 µM)	100 (≈ 158 µM)	25 (≈ 39.4 µM)	3.13 (≈ 4.94 µM)	3.13 (≈ 4.94 µM)	25 (≈ 39.4 µM)	50 (≈ 78.9 µM)	200 (≈ 316 µM)	200 (≈ 316 µM)	6.25 (≈ 9.86 µM)	25 (≈ 39.4 µM)	6.25 (≈ 9.86 µM)	6.25 (≈ 9.86 µM)	6.25 (≈ 9.86 µM)	> 200
CCCCCCCCCCCCCCCCOP(=O)(CCN(CCN)CCN)OC[C@H]1O[C@@H](n2ccc(=O)[nH]c2=O)[C@H](O)[C@@H]1O (stereo partly drawn)	3.13 (≈ 4.73 µM)	3.13 (≈ 4.73 µM)	12.5 (≈ 18.9 µM)	6.25 (≈ 9.44 µM)	1.56 (≈ 2.36 µM)	1.56 (≈ 2.36 µM)	3.13 (≈ 4.73 µM)	3.13 (≈ 4.73 µM)	6.25 (≈ 9.44 µM)	3.13 (≈ 4.73 µM)	3.13 (≈ 4.73 µM)	50 (≈ 75.5 µM)	3.13 (≈ 4.73 µM)	6.25 (≈ 9.44 µM)	1.56 (≈ 2.36 µM)	25 (≈ 37.8 µM)
CCCCCCCCCCCCCCOP(=O)(CCN(CCN)CCN)OC[C@H]1O[C@@H](n2ccc(=O)[nH]c2=O)[C@H](O)[C@@H]1O (stereo partly drawn)	12.5 (≈ 19.7 µM)	3.13 (≈ 4.94 µM)	100 (≈ 158 µM)	25 (≈ 39.4 µM)	6.25 (≈ 9.86 µM)	6.25 (≈ 9.86 µM)	6.25 (≈ 9.86 µM)	6.25 (≈ 9.86 µM)	12.5 (≈ 19.7 µM)	3.13 (≈ 4.94 µM)	3.13 (≈ 4.94 µM)	100 (≈ 158 µM)	12.5 (≈ 19.7 µM)	25 (≈ 39.4 µM)	6.25 (≈ 9.86 µM)	12.5 (≈ 19.7 µM)
CCCCCCCCCCCCCCCOP(=O)(CCN1C[C@@H](O)[C@@H](N)C1)OC[C@H]1O[C@@H](n2ccc(=O)[nH]c2=O)[C@H](O)[C@@H]1O (stereo partly drawn)	6.25 (≈ 9.66 µM)	25 (≈ 38.7 µM)	12.5 (≈ 19.3 µM)	12.5 (≈ 19.3 µM)	6.25 (≈ 9.66 µM)	3.13 (≈ 4.84 µM)	6.25 (≈ 9.66 µM)	12.5 (≈ 19.3 µM)	25 (≈ 38.7 µM)	12.5 (≈ 19.3 µM)	6.25 (≈ 9.66 µM)	50 (≈ 77.3 µM)	6.25 (≈ 9.66 µM)	6.25 (≈ 9.66 µM)	6.25 (≈ 9.66 µM)	> 200
CCCCCCCCCCCCCCCOP(=O)(CCN1CCC(N)C1)OC[C@H]1O[C@@H](n2ccc(=O)[nH]c2=O)[C@H](O)[C@@H]1O (stereo partly drawn)	6.25 (≈ 9.91 µM)	12.5 (≈ 19.8 µM)	6.25 (≈ 9.91 µM)	6.25 (≈ 9.91 µM)	3.13 (≈ 4.96 µM)	3.13 (≈ 4.96 µM)	6.25 (≈ 9.91 µM)	12.5 (≈ 19.8 µM)	6.25 (≈ 9.91 µM)	6.25 (≈ 9.91 µM)	6.25 (≈ 9.91 µM)	25 (≈ 39.6 µM)	6.25 (≈ 9.91 µM)	6.25 (≈ 9.91 µM)	6.25 (≈ 9.91 µM)	50 (≈ 79.3 µM)
CCCCCCCCCCCCCCCCOP(=O)(CCN(CCCN)CCCN)OC[C@H]1O[C@@H](n2ccc(=O)[nH]c2=O)[C@H](O)[C@@H]1O (stereo partly drawn)	3.13 (≈ 4.54 µM)	6.25 (≈ 9.06 µM)	50 (≈ 72.5 µM)	12.5 (≈ 18.1 µM)	0.78 (≈ 1.13 µM)	3.13 (≈ 4.54 µM)	3.13 (≈ 4.54 µM)	3.13 (≈ 4.54 µM)	25 (≈ 36.2 µM)	3.13 (≈ 4.54 µM)	3.13 (≈ 4.54 µM)	25 (≈ 36.2 µM)	3.13 (≈ 4.54 µM)	3.13 (≈ 4.54 µM)	3.13 (≈ 4.54 µM)	50 (≈ 72.5 µM)
CCCCCCCCCCCCCOP(=O)(CCN(CCCN)CCCN)OC[C@H]1O[C@@H](n2ccc(=O)[nH]c2=O)[C@H](O)[C@@H]1O (stereo partly drawn)	25 (≈ 38.6 µM)	3.13 (≈ 4.83 µM)	50 (≈ 77.2 µM)	12.5 (≈ 19.3 µM)	3.13 (≈ 4.83 µM)	6.25 (≈ 9.65 µM)	50 (≈ 77.2 µM)	25 (≈ 38.6 µM)	25 (≈ 38.6 µM)	6.25 (≈ 9.65 µM)	12.5 (≈ 19.3 µM)	100 (≈ 154 µM)	50 (≈ 77.2 µM)	50 (≈ 77.2 µM)	50 (≈ 77.2 µM)	50 (≈ 77.2 µM)
CCCCCCCCCCCCCCCCOP(=O)(CCN(CCNC(=N)N)CCNC(=N)N)OC[C@H]1O[C@@H](n2ccc(=O)[nH]c2=O)[C@H](O)[C@@H]1O (stereo partly drawn)	3.13 (≈ 4.2 µM)	6.25 (≈ 8.38 µM)	25 (≈ 33.5 µM)	6.25 (≈ 8.38 µM)	3.13 (≈ 4.2 µM)	3.13 (≈ 4.2 µM)	3.13 (≈ 4.2 µM)	6.25 (≈ 8.38 µM)	6.25 (≈ 8.38 µM)	6.25 (≈ 8.38 µM)	3.13 (≈ 4.2 µM)	50 (≈ 67 µM)	3.13 (≈ 4.2 µM)	6.25 (≈ 8.38 µM)	3.13 (≈ 4.2 µM)	25 (≈ 33.5 µM)
CCCCCCCCCCCCCCCCOP(=O)(CCN(CCCNC(=N)N)CCCNC(=N)N)OC[C@H]1O[C@@H](n2ccc(=O)[nH]c2=O)[C@H](O)[C@@H]1O (stereo partly drawn)	1.56 (≈ 2.02 µM)	3.13 (≈ 4.04 µM)	6.25 (≈ 8.08 µM)	3.13 (≈ 4.04 µM)	0.78 (≈ 1.01 µM)	1.56 (≈ 2.02 µM)	1.56 (≈ 2.02 µM)	3.13 (≈ 4.04 µM)	3.13 (≈ 4.04 µM)	1.56 (≈ 2.02 µM)	1.56 (≈ 2.02 µM)	25 (≈ 32.3 µM)	1.56 (≈ 2.02 µM)	3.13 (≈ 4.04 µM)	1.56 (≈ 2.02 µM)	50 (≈ 64.6 µM)
CCCCCCCCCCCCCCCOP(=O)(CCN(CCNC(=N)N)CCNC(=N)N)OC[C@H]1O[C@@H](n2ccc(=O)[nH]c2=O)[C@H](O)[C@@H]1O (stereo partly drawn)	3.13 (≈ 4.28 µM)	6.25 (≈ 8.54 µM)	25 (≈ 34.2 µM)	6.25 (≈ 8.54 µM)	3.13 (≈ 4.28 µM)	3.13 (≈ 4.28 µM)	3.13 (≈ 4.28 µM)	6.25 (≈ 8.54 µM)	6.25 (≈ 8.54 µM)	6.25 (≈ 8.54 µM)	3.13 (≈ 4.28 µM)	50 (≈ 68.3 µM)	3.13 (≈ 4.28 µM)	6.25 (≈ 8.54 µM)	3.13 (≈ 4.28 µM)	12.5 (≈ 17.1 µM)
CCCCCCCCCCCCCCCOP(=O)(CCN(CCN)CCN)OC[C@H]1O[C@@H](n2ccc(=O)[nH]c2=O)[C@H](O)[C@@H]1O (stereo partly drawn)	1.56 (≈ 2.41 µM)	1.56 (≈ 2.41 µM)	12.5 (≈ 19.3 µM)	6.25 (≈ 9.65 µM)	0.78 (≈ 1.2 µM)	3.13 (≈ 4.83 µM)	1.56 (≈ 2.41 µM)	1.56 (≈ 2.41 µM)	6.25 (≈ 9.65 µM)	1.56 (≈ 2.41 µM)	1.56 (≈ 2.41 µM)	100 (≈ 154 µM)	1.56 (≈ 2.41 µM)	3.13 (≈ 4.83 µM)	3.13 (≈ 4.83 µM)	50 (≈ 77.2 µM)
